Laboratory results from patent US11186576B2, “Pyrazolo[1,5-A][1,3,5]triazine and pyrazolo[1,5-A]pyrimidine derivatives as CDK inhibitors” (Aurigene Discovery Technologies Limited, priority 2015, dated 2021).

Target: CDK7/CycH/MNAT1 (Homo sapiens (Human), UniProt P50613)
Experiment: Biochemical assay for CDK7 (TR-FRET kinase assay)
Details: 60 min pre-incubation, 1 mM ATP; for inhibition at 10 µM: read-out: % inhibition @ 10 μM; for IC50: read-out: IC50
Summary of the method: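 CDK7/CycH/MNAT1 (5 nM) was preincubated with compound for 60 min at room temperature, then reacted for 60 min with 100 nM ULight-MBP and 1 mM ATP in 1% DMSO. Irreversibility was probed with 20, 60 and 180 min preincubations.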

CDK7/CycH/MNAT1, sequence (P50613 whole entry): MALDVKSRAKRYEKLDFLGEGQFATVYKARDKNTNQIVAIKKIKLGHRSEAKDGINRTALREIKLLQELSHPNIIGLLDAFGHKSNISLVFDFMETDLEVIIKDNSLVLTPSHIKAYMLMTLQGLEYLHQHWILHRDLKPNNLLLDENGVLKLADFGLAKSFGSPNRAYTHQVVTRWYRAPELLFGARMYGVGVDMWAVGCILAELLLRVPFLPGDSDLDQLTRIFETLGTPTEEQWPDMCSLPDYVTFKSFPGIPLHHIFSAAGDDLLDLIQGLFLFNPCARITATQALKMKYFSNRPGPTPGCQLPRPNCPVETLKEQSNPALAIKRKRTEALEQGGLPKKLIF
CDK7/CycH/MNAT1, sequence (P51946 whole entry partner): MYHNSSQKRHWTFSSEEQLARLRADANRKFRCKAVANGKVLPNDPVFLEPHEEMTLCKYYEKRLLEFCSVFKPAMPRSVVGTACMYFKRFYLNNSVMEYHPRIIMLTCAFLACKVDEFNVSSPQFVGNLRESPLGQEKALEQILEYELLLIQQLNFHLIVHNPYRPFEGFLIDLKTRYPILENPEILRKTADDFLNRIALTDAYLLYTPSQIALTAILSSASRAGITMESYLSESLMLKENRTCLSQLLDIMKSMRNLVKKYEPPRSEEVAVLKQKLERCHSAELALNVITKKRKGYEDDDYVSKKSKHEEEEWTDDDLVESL
CDK7/CycH/MNAT1, sequence (P51948 whole entry partner): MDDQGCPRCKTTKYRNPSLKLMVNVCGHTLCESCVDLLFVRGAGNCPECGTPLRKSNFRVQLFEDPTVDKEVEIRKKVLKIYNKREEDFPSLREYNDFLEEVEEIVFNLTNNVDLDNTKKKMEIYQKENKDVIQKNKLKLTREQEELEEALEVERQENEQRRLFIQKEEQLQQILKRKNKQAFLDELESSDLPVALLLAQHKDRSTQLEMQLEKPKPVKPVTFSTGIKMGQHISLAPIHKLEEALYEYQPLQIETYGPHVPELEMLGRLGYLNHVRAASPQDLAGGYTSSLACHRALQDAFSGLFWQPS

SMILES | inhibition at 10 µM (10 μM compound) | IC50 | % inhibition @ 10 μM (10 μM compound)
C=CC(=O)NCC(=O)Nc1cccc(CNc2nc(NC3CCOCC3)nc3c(C(C)C)cnn23)c1 [Compound 79, N-(2-((3-(((8-isopropyl-2-((tetrahydro-2H-pyran-4-yl)amino)pyrazolo[1,5-a][1,3,5]triazin-4-yl)amino)methyl)phenyl)amino)-2-oxoethyl)acrylamide] | 96% | < 300 nM | 
C=CC(=O)NC(C)C(=O)Nc1cccc(CNc2nc(NC3CCOCC3)nc3c(C(C)C)cnn23)c1 (stereo not drawn) [Compound 80, N-(1-((3-(((8-isopropyl-2-((tetrahydro-2H-pyran-4-yl)amino)pyrazolo[1,5-a][1,3,5]triazin-4-yl)amino)methyl)phenyl)amino)-1-oxopropan-2-yl)acrylamide] | 94% | 300 to 1000 nM | 
C=CC(=O)N(C)CC(=O)Nc1cccc(CNc2nc(NC3CCOCC3)nc3c(C(C)C)cnn23)c1 [Compound 81, N-(2-((3-(((8-isopropyl-2-((tetrahydro-2H-pyran-4-yl)amino)pyrazolo[1,5-a][1,3,5]triazin-4-yl)amino)methyl)phenyl)amino)-2-oxoethyl)-N-methylacrylamide] | 98% | < 300 nM | 
C=CC(=O)NC(C)(C)C(=O)Nc1cccc(CNc2nc(NC3CCOCC3)nc3c(C(C)C)cnn23)c1 [Compound 82, N-(1-((3-(((8-isopropyl-2-((tetrahydro-2H-pyran-4-yl)amino)pyrazolo[1,5-a][1,3,5]triazin-4-yl)amino)methyl)phenyl)amino)-2-methyl-1-oxopropan-2-yl)acrylamide] | 93% | 300 to 1000 nM | 
C=CC(=O)N(C)C1(C(=O)Nc2cccc(CNc3nc(NC4CCOCC4)nc4c(C(C)C)cnn34)c2)CC1 [Compound 84, N-(3-(((8-isopropyl-2-((tetrahydro-2H-pyran-4-yl)amino)pyrazolo[1,5-a][1,3,5]triazin-4-yl)amino)methyl)phenyl)-1-(N-methylacrylamido)cyclopropane-1-carboxamide] | 97% | < 300 nM | 
C=CC(=O)N1CCC1C(=O)Nc1cccc(Nc2nc(NC3CCOCC3)nc3c(C(C)C)cnn23)c1 (stereo not drawn) [Compound 86, 1-acryloyl-N-(3-((8-isopropyl-2-((tetrahydro-2H-pyran-4-yl)amino)pyrazolo[1,5-a][1,3,5]triazin-4-yl)amino)phenyl)azetidine-2-carboxamide] | 99% | < 300 nM | 
C=CC(=O)N[C@H]1CC[C@@H](C(=O)Nc2cccc(Nc3nc(NC4CCOCC4)nc4c(C(C)C)cnn34)c2)CC1 [Compound 87, (1,4-cis)-4-acrylamido-N-(3-((8-isopropyl-2-((tetrahydro-2H-pyran-4-yl)amino)pyrazolo[1,5-a][1,3,5]triazin-4-yl)amino)phenyl)cyclohexane-1-carboxamide] |  |  | 32%
C=CC(=O)N1CCCC(C(=O)Nc2cccc(CNc3nc(OC4CCN(C)CC4)nc4ccnn34)c2)C1 (stereo not drawn) [Compound 89, 1-acryloyl-N-(3-(((2-((1-methylpiperidin-4-yl)oxy)pyrazolo[1,5-a][1,3,5]triazin-4-yl)amino)methyl)phenyl)piperidine-3-carboxamide] | 38% |  | 
C=CC(=O)N[C@H]1CC[C@@H](C(=O)Nc2cccc(CNc3nc(OC4CCOC4)nc4c(C(C)C)cnn34)c2)CC1 (stereo partly drawn) [Compound 100, (1,4-cis)-4-acrylamido-N-(3-(((8-isopropyl-2-((tetrahydrofuran-3-yl)oxy)pyrazolo[1,5-a][1,3,5]triazin-4-yl)amino)methyl)phenyl)cyclohexane-1-carboxamide] | 82% | 300 to 1000 nM | 
C=CC(=O)N1CCC(C(=O)Nc2cccc(CNc3nc(OCC(C)C)nc4c(C(C)C)cnn34)c2)C1 (stereo not drawn) [Compound 102, 1-acryloyl-N-(3-(((2-isobutoxy-8-isopropylpyrazolo[1,5-a][1,3,5]triazin-4-yl)amino)methyl)phenyl)pyrrolidine-3-carboxamide] | 82% | 300 to 1000 nM | 
